According to ChEMBL document CHEMBL5390230, “Imidazole-based sphingosine-1-phosphate transporter Spns2 inhibitors” (Bioorg Med Chem Lett, 2023):

Experiments:
Type in all cases: cell-based
[1] = molecular target: T1, Sphingosine-1-phosphate transporter SPNS2 (Homo sapiens) (UniProt Q8IVW8); assay: Inhibition of Spns2 in human HeLa cells assessed as decrease in extracellular S1P level at 3 uM by LC/MS analysis relative to control
T1 sequence (whole entry): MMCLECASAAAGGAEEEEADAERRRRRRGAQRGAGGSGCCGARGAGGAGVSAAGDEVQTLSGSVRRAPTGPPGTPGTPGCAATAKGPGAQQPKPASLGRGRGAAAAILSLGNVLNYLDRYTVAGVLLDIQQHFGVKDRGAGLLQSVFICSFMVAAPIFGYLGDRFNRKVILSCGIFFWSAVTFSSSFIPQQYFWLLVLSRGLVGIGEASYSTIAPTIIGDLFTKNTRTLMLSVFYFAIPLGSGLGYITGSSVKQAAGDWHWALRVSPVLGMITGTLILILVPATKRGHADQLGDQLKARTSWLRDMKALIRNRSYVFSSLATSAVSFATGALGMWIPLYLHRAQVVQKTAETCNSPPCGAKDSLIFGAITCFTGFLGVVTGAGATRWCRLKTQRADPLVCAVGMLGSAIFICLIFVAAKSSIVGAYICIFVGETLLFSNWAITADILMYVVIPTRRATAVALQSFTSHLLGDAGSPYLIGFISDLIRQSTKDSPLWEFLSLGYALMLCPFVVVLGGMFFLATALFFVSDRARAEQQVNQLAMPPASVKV

[2] = molecular target: T1, Sphingosine-1-phosphate transporter SPNS2 (Homo sapiens); assay: Inhibition of Spns2 in human HeLa cells assessed as decrease in extracellular S1P level at 2 uM by LC/MS analysis relative to control
[3] = molecular target: T2, Sphingosine-1-phosphate transporter SPNS2 (Homo sapiens, UniProt Q8IVW8); assay: Inhibition of Spns2 in human HeLa cells decrease in extracellular S1P level by LC/MS method
T2 sequence (Q8IVW8 whole entry): T1 sequence (whole entry)

Compound | inhibition [1] | inhibition [2] | IC50 [3]
CCCCCCCc1nc(-c2ccc(-n3cc[n+](C)c3)cc2)no1 | 0% |  | 
CCCCCCCCCCc1nc(-c2ccc(-n3cc[n+](C)c3)cc2)no1 | 41% |  | 
CCCCCCCCCCc1nc(-c2ccc(-n3ccnc3)cc2)no1 | 33% |  | 
CCCCCCCCCCCc1nc(-c2ccc(-n3ccnc3)cc2)no1 | 25% |  | 
CCCCCCCCCc1nc(-c2ccc(-n3ccnc3)cc2)no1 | 28% |  | 
CCCCCCCCCc1nc(-c2ccc(-n3cc[n+](C)c3)cc2)no1 | 47% |  | 
CCCCCCCCCCc1ccc(-c2noc(CCCN)n2)cc1 |  | 67% | 
CCCCCCCCc1nc(-c2ccc(-n3cc[n+](C)c3)cc2)no1 | 26% |  | 
CCCCCCCCCCCc1nc(-c2ccc(-n3cc[n+](C)c3)cc2)no1 | 3% |  | 
CCCCCCCc1nc(-c2ccc(-n3ccnc3)cc2)no1 | 12% |  | 
CCCCCCCCc1nc(-c2ccc(-n3ccnc3)cc2)no1 | 22% |  | 

More lines, now with the values ahead:

inhibition [1] | inhibition [2] | IC50 [3] | Compound
 | 27% |  | CCCCCCCCCCc1ccc(-c2cn(CC(=O)OC(C)C)c(CCCN)n2)cc1
 | 7% |  | CCCCCCCCCCc1ccc(-c2cn(CCC)c(CCCN)n2)cc1
 | 51% | 1400 nM | CCCCCCCCCCc1ccc(-c2cn(CC)c(CCCN)n2)cc1
 | 51% | 2820 nM | CCCCCCCCCCc1ccc(-c2cn(C)c(CCCN)n2)cc1
 | 10% |  | CCCCCCCCCCc1ccc(-c2cn(CC(N)=O)c(CCCN)n2)cc1
 | 11% |  | CCCCCCCCCCc1ccc(-c2cn(CCCOC)c(CCCN)n2)cc1
